Assay results from patent publication US20250186408A1, “TREATMENT OF PHARMACORESISTANT EPILEPSY” (Katholieke Universiteit Leuven, priority 2021, published 2025).
Like-named read-outs stand apart in the source and are kept apart here.

How the values were obtained:
[1] = target: nAChR (a4/b2) (Homo sapiens, UniProt P17787+P43681); experiment: Ion Channel nAChR (a4/b2) Blocker; format: cell-based; settings: for Emax: Ion Channel nAChR (a4/b2) Blocker, read-out: Max response
[2] = target: ADRB2 (Homo sapiens, UniProt P07550); experiment: cAMP ADRB2 Antagonist; format: cell-based; settings: for Emax: read-out: Max response
Experimental: cAMP Hunter cell lines were expanded from freezer stocks. […] For Gi agonist determination, cells were incubated with sample in the presence of EC80 forskolin to induce response. For both conditions, media was aspirated from cells and replaced with 15 μL 2:1 HBSS/10 mM HEPES:cAMP XS+ Ab reagent. […] 5 μL of 4× sample was added to cells and incubated at 37° C. or room temperature (RT) for 30 or 60 min. Final assay vehicle concentration was 1%. […] Media was aspirated from cells and replaced with 10 μL 1:1 HBSS/HEPES:cAMP XS+ Ab reagent. […] For Gi coupled GPCRs, EC80 forskolin was included. […] Compound activity was analyzed using CBIS data analysis suite (ChemInnovation, CA).

[3] = target: KvLQT1/minK (Homo sapiens, UniProt P51787); experiment: Ion Channel KvLQT1/minK Opener; format: cell-based; settings: for Emax: read-out: Max response
[4] = target: OPRK1 (Homo sapiens, UniProt P41145); experiment: cAMP OPRK1 Antagonist; settings: for Emax: read-out: Max response
Experimental: (§1) In vitro pharmacological profiling of compounds was done against 78 functional assays for 47 common off-targets (30) by Eurofins DiscoverX Corporation (Fremont, CA, USA) using their SAFETYscan E/IC50 ELECT service (Cat Ref 87-1003DR, Safety47 Panel Dose Response). […] Compounds were tested in a range of 10 concentrations, following a 3-fold serial dilution, starting from 10 μM. The assays were performed utilizing the PathHunter enzyme fragment complementation (EFC) technology, FLIPR®-based cellular screening assays, and KINOMEscan kinase binding assays.
cAMP Hunter cell lines were expanded from freezer stocks. Prior to testing, cells were seeded in a total volume of 20 μL into white walled 384-well microplates and incubated at 37° C. cAMP modulation was determined using the DiscoverX HitHunter cAMP XS+ assay. For Gs agonist determination, cells were incubated with sample to induce response. For Gi agonist determination, cells were incubated with sample in the presence of EC80 forskolin to induce response. For both conditions, media was aspirated from cells and replaced with 15 μL 2:1 HBSS/10 mM HEPES:cAMP XS+ Ab reagent. Intermediate dilution of sample stocks was performed to generate 4× sample in assay buffer (containing 4×EC80 forskolin in the case of antagonist determination). 5 μL of 4× sample was added to cells and incubated at 37° C. or room temperature (RT) for 30 or 60 min. Final assay vehicle concentration was 1%. For antagonist determination, cells were pre-incubated with sample followed by agonist challenge at the EC80 concentration. Media was aspirated from cells and replaced with 10 μL 1:1 HBSS/HEPES:cAMP XS+ Ab reagent. 5 μL of 4× compound was added to the cells and incubated at 37° C. or RT for 30 min. 5 μL of 4×EC80 agonist was added to the cells and incubated at 37° C. or RT for 30 or 60 min. For Gi coupled GPCRs, EC80 forskolin was included. […] Microplates were read following signal generation with a PerkinElmer Envision™ instrument for chemiluminescent signal detection. Compound activity was analyzed using CBIS data analysis suite (ChemInnovation, CA). For Gs agonist mode assays, percentage activity was calculated using the following equation:

[5] = target: T1, ADRA1A (Homo sapiens, UniProt P35348); experiment: Calcium Flux ADRA1A Agonist; settings: for Emax: read-out: Max response
T1 sequence (P35348 1-466): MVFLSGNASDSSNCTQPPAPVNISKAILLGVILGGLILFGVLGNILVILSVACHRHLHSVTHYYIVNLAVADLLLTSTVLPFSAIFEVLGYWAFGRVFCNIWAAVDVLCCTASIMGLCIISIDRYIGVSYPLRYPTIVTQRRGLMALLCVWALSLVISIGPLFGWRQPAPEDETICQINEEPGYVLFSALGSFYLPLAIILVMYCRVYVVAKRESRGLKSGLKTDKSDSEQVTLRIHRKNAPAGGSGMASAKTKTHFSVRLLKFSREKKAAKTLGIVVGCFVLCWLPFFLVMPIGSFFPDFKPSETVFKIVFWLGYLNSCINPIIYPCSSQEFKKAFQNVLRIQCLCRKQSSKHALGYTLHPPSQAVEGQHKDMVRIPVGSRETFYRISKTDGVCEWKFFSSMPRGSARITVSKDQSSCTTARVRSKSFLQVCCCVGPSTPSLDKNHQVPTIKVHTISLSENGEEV
Experimental: as §1
(§2) Prior to testing, cells (10,000 cells/well) were expanded from freezer stocks and seeded into a total volume of 50 μL into black walled, clear-bottom, Poly-D-lysine coated 384-well microplates and incubated at 37° C. […] Assays were performed in 1× dye loading buffer consisting of 1× Dye (DiscoverX, Calcium No Wash^PLUS kit, Catalog No. 90-0091), 1× Additive A and 2.5 mM Probenecid in HBSS/20 mM HEPES. Probenecid was prepared fresh. Prior to testing, media was aspirated from cells and replaced with 25 μL dye loading buffer. Cells were incubated for 45 min at 37° C. and then 20 min at RT. For agonist determination, 25 μL of 2× compound in HBSS/20 mM HEPES was added using a FLIPR Tetra (MDS). For antagonist determination, cells were pre-incubated with sample followed by agonist challenge at the EC80 concentration. 25 μL of 2× sample was added and cells were incubated for 30 min at RT in the dark to equilibrate plate temperature. After incubation, antagonist determination was initiated by addition of 25 μL of 1× compound with 3×EC80 agonist using FLIPR. For both agonist and antagonist formats, activity was measure on a FLIPR Tetra (MDS). Calcium mobilization was monitored for 2 min with a 5 sec baseline read.
(§3) FLIPR read—Area under the curve, was calculated for the entire 2 min read. Compound activity was analysed using CBIS data analysis suite (ChemInnovation, CA).

[6] = target: T2, CCKAR (Homo sapiens, UniProt P32238); experiment: Calcium Flux CCKAR Antagonist; format: cell-based; settings: for Emax: read-out: Max response; for IC50: read-out: RC50, result type IC50
T2 sequence (P32238 1-428): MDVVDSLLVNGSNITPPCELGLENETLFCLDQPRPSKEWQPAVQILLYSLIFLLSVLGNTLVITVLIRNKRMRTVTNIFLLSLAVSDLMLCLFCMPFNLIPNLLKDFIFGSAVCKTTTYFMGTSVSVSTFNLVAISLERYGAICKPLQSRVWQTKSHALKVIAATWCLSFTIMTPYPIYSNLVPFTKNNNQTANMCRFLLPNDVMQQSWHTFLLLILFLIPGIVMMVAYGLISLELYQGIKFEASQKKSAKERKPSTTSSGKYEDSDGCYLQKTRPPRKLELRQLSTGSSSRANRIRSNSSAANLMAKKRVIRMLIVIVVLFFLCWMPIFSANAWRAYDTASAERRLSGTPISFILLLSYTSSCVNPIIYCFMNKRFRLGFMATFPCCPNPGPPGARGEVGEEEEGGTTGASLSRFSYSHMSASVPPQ
Experimental: (≤0.2% DMSO concentration). Assays were performed in 1× dye loading buffer consisting of 1× Dye (DiscoverX, Calcium No Wash^PLUS kit, Catalog No. 90-0091), 1× Additive A and 2.5 mM Probenecid in HBSS/20 mM HEPES. Probenecid was prepared fresh. Prior to testing, media was aspirated from cells and replaced with 25 μL dye loading buffer. Cells were incubated for 45 min at 37° C. and then 20 min at RT. For agonist determination, 25 μL of 2× compound in HBSS/20 mM HEPES was added using a FLIPR Tetra (MDS). […] 25 μL of 2× sample was added and cells were incubated for 30 min at RT in the dark to equilibrate plate temperature. After incubation, antagonist determination was initiated by addition of 25 μL of 1× compound with 3×EC80 agonist using FLIPR. For both agonist and antagonist formats, activity was measure on a FLIPR Tetra (MDS). Calcium mobilization was monitored for 2 min with a 5 sec baseline read.
FLIPR read—Area under the curve, was calculated for the entire 2 min read.

[7] = target: T3, CHRM1 (Homo sapiens, UniProt P11229); experiment: Calcium Flux CHRM1 Agonist; settings: for Emax: read-out: Max response
T3 sequence (P11229 1-460): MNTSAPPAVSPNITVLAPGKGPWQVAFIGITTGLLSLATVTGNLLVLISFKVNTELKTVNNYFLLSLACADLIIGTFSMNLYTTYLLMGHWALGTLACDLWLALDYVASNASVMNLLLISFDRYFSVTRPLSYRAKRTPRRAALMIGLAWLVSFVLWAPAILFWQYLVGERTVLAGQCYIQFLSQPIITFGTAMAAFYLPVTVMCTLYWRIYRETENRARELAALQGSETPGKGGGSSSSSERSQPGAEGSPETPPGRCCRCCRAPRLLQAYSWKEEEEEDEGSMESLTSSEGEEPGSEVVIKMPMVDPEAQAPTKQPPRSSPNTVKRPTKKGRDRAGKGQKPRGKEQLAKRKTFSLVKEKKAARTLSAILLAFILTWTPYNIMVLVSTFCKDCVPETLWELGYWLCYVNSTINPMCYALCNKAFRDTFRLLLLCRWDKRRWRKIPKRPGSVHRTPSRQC
Experimental: as §1, §2, §3

Chain of nAChR (a4/b2) (P43681 29-627 limits assumed): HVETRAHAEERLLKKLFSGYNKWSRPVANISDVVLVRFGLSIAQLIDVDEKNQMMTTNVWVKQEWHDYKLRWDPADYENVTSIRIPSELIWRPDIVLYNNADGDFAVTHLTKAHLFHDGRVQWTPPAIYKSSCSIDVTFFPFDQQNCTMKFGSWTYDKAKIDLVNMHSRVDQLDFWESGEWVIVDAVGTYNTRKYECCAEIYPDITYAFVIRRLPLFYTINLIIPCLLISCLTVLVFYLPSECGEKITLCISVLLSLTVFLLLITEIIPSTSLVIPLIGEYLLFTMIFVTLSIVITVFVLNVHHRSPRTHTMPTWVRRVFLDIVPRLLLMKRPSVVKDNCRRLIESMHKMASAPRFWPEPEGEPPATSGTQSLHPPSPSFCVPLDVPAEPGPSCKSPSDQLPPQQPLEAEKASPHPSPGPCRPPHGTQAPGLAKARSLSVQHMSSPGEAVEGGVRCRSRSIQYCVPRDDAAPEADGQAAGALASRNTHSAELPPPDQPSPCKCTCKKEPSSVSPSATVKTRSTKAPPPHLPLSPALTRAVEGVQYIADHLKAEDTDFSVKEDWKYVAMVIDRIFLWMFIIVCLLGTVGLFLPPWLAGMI
Chain of nAChR (a4/b2) (P17787 26-502): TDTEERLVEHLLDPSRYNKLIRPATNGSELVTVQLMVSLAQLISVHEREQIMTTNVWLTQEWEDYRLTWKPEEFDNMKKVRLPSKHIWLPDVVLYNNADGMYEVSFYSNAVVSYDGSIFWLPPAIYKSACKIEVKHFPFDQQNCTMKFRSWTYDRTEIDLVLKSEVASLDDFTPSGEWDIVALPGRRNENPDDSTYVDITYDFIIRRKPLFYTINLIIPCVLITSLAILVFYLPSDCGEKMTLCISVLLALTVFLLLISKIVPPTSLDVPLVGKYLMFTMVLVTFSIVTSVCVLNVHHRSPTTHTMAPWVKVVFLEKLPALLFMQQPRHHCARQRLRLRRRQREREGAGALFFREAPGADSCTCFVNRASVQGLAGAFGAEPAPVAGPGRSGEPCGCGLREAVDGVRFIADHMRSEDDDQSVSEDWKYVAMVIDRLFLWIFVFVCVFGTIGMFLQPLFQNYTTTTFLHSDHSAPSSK
Chain of ADRB2 (P07550 whole entry): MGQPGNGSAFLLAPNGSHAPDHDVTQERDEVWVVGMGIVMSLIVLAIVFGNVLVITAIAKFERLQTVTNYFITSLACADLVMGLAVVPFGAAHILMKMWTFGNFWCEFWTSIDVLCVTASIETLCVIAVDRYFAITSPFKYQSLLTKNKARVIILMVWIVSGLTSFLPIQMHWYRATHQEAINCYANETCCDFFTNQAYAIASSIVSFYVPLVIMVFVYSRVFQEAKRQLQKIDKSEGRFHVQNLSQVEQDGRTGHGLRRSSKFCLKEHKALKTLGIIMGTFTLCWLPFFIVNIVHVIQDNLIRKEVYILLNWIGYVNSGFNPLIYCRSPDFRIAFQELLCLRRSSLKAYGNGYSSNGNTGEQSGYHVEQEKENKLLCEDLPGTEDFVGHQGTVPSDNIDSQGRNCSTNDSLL
Chain of OPRK1 (P41145 whole entry): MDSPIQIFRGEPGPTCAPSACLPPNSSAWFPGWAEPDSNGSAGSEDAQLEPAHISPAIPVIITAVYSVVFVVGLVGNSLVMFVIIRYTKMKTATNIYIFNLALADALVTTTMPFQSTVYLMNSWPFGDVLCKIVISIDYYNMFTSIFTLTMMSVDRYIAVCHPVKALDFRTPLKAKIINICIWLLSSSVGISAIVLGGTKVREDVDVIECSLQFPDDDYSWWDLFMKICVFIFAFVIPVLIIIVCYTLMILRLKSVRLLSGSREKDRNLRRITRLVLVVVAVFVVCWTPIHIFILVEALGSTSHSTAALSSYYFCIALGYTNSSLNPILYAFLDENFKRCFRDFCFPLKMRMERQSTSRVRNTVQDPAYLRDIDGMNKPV

Compound | IC50 [1] [µM] | Emax [1] [%] | Emax ([2]; cAMP ADRB2 Antagonist) [%] | IC50 ([2]; cAMP ADRB2 Antagonist, read-out: RC50, result type IC50) [µM] | Emax ([3]; Ion Channel KvLQT1/minK Opener) [%] | EC50 ([3]; Ion Channel KvLQT1/minK Opener, read-out: RC50, result type EC50) [µM] | IC50 [4] [µM] | Emax [4] [%] | EC50 [5] [µM] | Emax [5] [%] | Emax ([6]; Calcium Flux CCKAR Antagonist) [%] | IC50 ([6]; Calcium Flux CCKAR Antagonist) [µM] | EC50 [7] [µM] | Emax [7] [%] | IC50 [2] [µM] | Emax [2] [%] | EC50 [3] [µM] | Emax [3] [%] | Emax [6] [%]
Clc1cccc(C#Cc2n[nH]c3ncccc23)c1 [Compound 10.1, 3-((3-chlorophenyl)ethynyl)-1H-pyrazolo[3,4-b]pyridine] | > 10 | 1.5 | 39.9 | > 10 | 2 | > 10 | > 10 | 0 | > 10 | 0.6 | 0 | > 10 | > 10 | 1.8 |  |  |  |  | 
CC(C)(C)c1ccc(C#CC(O)c2ccccc2)cc1 (racemic) [Compound 3.3, rac-3-(4-(tert-butyl)phenyl)-1-phenylprop-2-yn-1-ol] | 6.9 | 73.9 |  |  |  |  | > 10 | 8.9 | > 10 | 0.6 |  | > 10 | > 10 | 1.8 | > 10 | 0 | > 10 | 0 | 0
